Data set [1] can be described thus: Tumour and liver osmium uptake after a single ip dose (Experiment 5, ICP-MS). Type of data set: in vivo, C57Bl/6 mice. As for the experimental part: Experiment 5 determined FY26⋅Cl uptake in mouse tumour and liver. Hepa1–6-bearing mice were randomly assigned to either treatment or control groups. They received a single ip injection of 5, 10, or 20 mg/kg of FY26⋅Cl or 0.1 M PBS (vehicle) at ZT6 (Table 1). The mice from pre-set subgroups were culled at 6, 24, or 48 h after injection. The subcutaneous tumours in both flanks, as well as liver, spleen, one kidney, an ileum, and a colon segment and brain were sampled and stored at −80°C.
(§1) For Experiments 1 and 2, FY26⋅PF6 was diluted in the vehicle, composed of 1% Tween 80 (Sigma-Aldrich, Gillingham, UK), 5% DMSO (Corning, New York, USA) and 94% of 0.9% saline (Prep room, Life Sciences, University of Warwick) under laminar flow. FY26⋅PF6 concentration was confirmed with ICP-MS. For Experiments 3–5, using FY26⋅Cl, a stock solution of 50 mg/ml FY26⋅Cl was prepared in 0.9% saline on the day of injection and diluted as required; the vehicle consisted of 0.9% saline.
Liver tissue was homogenized by manual mechanical grinding (pestle and mortar) while frozen under liquid N2. Once thawed, ∼90–110 mg of homogenized tissue was pipetted into microwave reaction vessels (10 ml), and tetramethylammonium hydroxide (TMAH, 25% m/v, 2 ml) was added. Tumour tissue was not homogenized and instead digested as whole tissue. It was weighed directly into microwave vials and TMAH was added (100 µl per 5 mg tissue, minimum of 500 µl added). The samples were digested via microwave irradiation (CEM SP-D Discover® microwave reactor, ≥300 W, ≥450 psi) at 200°C for 10 min. Digested samples were diluted in one part DDIW, and then centrifuged at 9000 rpm for 10 min at 20°C. The final analytical samples were prepared by a further 1 in 12.5 dilution in DDIW (total dilution of 1 in 25), ensuring a final TMAH concentration of 1% and total dissolved solids <0.1% […]. TMAH digestion was selected to circumvent the formation of volatile Os species with nitric acid.
Analyses of digested tissue samples were carried out on an Agilent Technologies ICP-MS 7900 spectrometer in a basic aqueous matrix of TMAH (1%, m/v). The osmium concentrations were determined via isotopic detection of ^189Os in gas (He) and no-gas modes, and samples were referenced internally to ^100Ru (10 ppb). A concentration calibration curve was produced by serial dilutions of an osmium standard (1000 ppm) in 1% TMAH: 0, 0.1, 0.25, 0.5, 1, 2.5, 5, 10, 25, 50, 100, 250, 500, and 1000 ppb.

The subject of the next data set is A2780 cells. Kind of data set: Apoptosis and ROS induction on exposure in A2780 cells. Type of data set: cell-based. The conditions noted are these: data not shown.
Data set [2] deals with Hepa1–6-Per2-luc hepatocarcinoma tumours. Kind of data set: Antitumour efficacy in Hepa1–6-bearing C57Bl/6 mice (Experiments 3 and 4). Type of data set: in vivo. The conditions noted are these: for percentage tumour inhibition relative to control: Experiment 4, end. As for the experimental part:
(§2) Male CD1-Foxn1^nu or C57Bl/6 (B6) mice aged 5–10 weeks (Janvier, Le Genest St Isle, France) were housed in groups of three to four mice per cage in temperature-controlled (23 ± 1°C), ventilated (100 ± 10 l/min), and light-tight chronobiological animal facilities (Eurobioconcept, Bonneuil s/Marne, France). They were synchronized with an alternation of 12 h of light (L) and 12 h of darkness (D) (LD12:12), with light starting at 07:00, and had ad libitum access to food and water throughout all the experiments. In line with convention, onset of light and that of darkness are referred to as Zeitgeber time 0 (ZT0) and ZT12, respectively. After one or more weeks on this regimen and on the day prior to tumour inoculation, both flanks of each B6 mouse were shaved using clippers.
Mouse hepatocarcinoma (Hepa1–6, ATCC® CRL-1830™) was kindly provided by S. Dulong (INSERM U935, Villejuif, France), following their stable transfection with the Per2-luc [pLV7-Bsd-P(Per2)-dLuc] reporter constructs within the C5SYS ERASYSBIO+ project (FP7). Mouse Hepa1–6-Per2-luc cells were cultured in 15-cm Petri dishes until they reached 80% confluency. On the day of tumour inoculation, the cells were trypsinized and resuspended at a concentration of 10^6 cells/100 µl in PBS solution alone (Experiments 1 and 2) or with 1:1 MatriGel™ (Corning, Flintshire, UK) (Experiments 3–5) and kept on ice until injected.
(§3) The mice, aged 8–10 weeks, were anesthetized under isoflurane and Hepa1–6-Per2-luc cells were injected subcutaneously in both postero-lateral flanks of each mouse. Mice were then inspected and weighed daily until experiment completion. Tumour sites were inspected daily until tumours became palpable and amenable to daily measurements of perpendicular diameters using callipers. Measurements were always taken at the same circadian time.
(§4) Mean daily tumour weight per mouse was calculated as the average volume of the right and left flank tumours according to (L × W^2)/2, where L is the larger and W the smaller perpendicular diameter, and 1 cm^3 corresponds to 1 g. Mice with an estimated tumour weight exceeding 10% of their body weight or those in poor general condition or loosing >15% of their starting body weight were euthanized, in compliance with our Home Office Project Licence specifications approved by the Animals in Science Committee and Animal Welfare and Ethical Review Body.
(§5) Experiment 3 aimed at assessing the efficacy and tolerability of the more soluble formulation of FY26⋅Cl in Hepa1–6-bearing C57Bl/6 mice. The mice were randomized to receive vehicle or FY26⋅Cl, at a cumulative dose of 60 mg/kg. Treated mice received ip injections of 20 mg/kg of FY26⋅Cl at ZT6 12, 14, and 17 days after tumour inoculation. Control mice received ip vehicle on the same days.
(§6) Experiment 4 aimed at confirming efficacy and optimizing timing and scheduling of the same cumulative dose of 60 mg/kg of FY26⋅Cl. Mice were randomized to receive either vehicle or FY26⋅Cl as four injections of 15 mg/kg at ZT6 or ZT18 on days 11, 14, 17, and 21.
as §1
(§7) Body weight data were expressed as % body weight measured on the first treatment day. Tumour weights for individually treated mice were expressed as % of the median control values, in order to determine % inhibition. Mean and standard error or median and interquartiles were computed for the different treatment groups and experimental conditions, i.e. drug timing and day of assessment. Groups were compared using parametric or non-parametric ANOVAs, respectively.

A short description of data set [3]: Tolerability (survival, body weight) in Hepa1–6-bearing C57Bl/6 mice (Experiments 3 and 4). Type of data set: in vivo. As for the experimental part:
as §2, §3, §4, §5, §6, §1, §7

Consider one compound from publication PMC7853623, “Dose- and time-dependent tolerability and efficacy of organo-osmium complex FY26 and its tissue pharmacokinetics in hepatocarcinoma-bearing mice” (Metallomics: Integrated Biometal Science, 2020).

As to `CN(C)c1ccc(N=Nc2ccccn2)cc1.Cc1ccc(C(C)C)cc1.[Cl-].[I-].[Os+2]` [FY26⋅Cl], the “liver [Os] levels at 6 h relative to 20 or 10 mg/kg” value in data set [1] (5 mg/kg single ip, 6 h) was “nearly halved”. Further, the “liver [Os] levels over time” value in data set [1] (20 mg/kg single ip) is “remained almost constant until 48 h”. The “tumour [Os] levels over time” value in data set [1] (20 mg/kg single ip, 6, 24 and 48 h) is “remained almost constant over time”; in data set [1] (10 and 5 mg/kg single ip, tumours of both flanks), “decreased at 24 h and slightly increased at 48 h”. The “liver [Os] concentrations over time” value in data set [1] (10 and 5 mg/kg single ip) was “decreased sharply at 24 h and remained stable until 48 h”. Also, in data set [1] (6 h post-treatment, single ip dose at ZT6, both tumours), the “tumour uptake as compared to liver (less)” value is approximately 10 fold. In addition, the ROS induction entry with A2780 cells was “did induce an increase in ROS”. Besides, in the data set with A2780 cells, the induction of apoptosis entry is on record as “did not induce apoptosis”. Further, the “median percentage tumour inhibition relative to controls” value in data set [2] (Experiment 3, at completion, 20 mg/kg ip × 3 at ZT6) is on record as 76.5%; in data set [2] (Experiment 4, at completion, 15 mg/kg ip × 4, irrespective of dosing time), 42.6%. Further, in data set [2] (Experiment 3, day 20, 20 mg/kg ip × 3 at ZT6 (control 128.8 mg)), the “median tumour weight, treatment group” value turned out to be 30.2 mg. Also, the “median tumour weight, treatment groups ZT6 and ZT18” value in data set [2] (Experiment 4, day 23, 15 mg/kg ip × 4 (control 213.2 mg)) is 122.3 mg. For the same compound, the figures for the “percentage tumour inhibition relative to control” value in data set [2] (15 mg/kg ip × 4 at ZT6) and in data set [2] (15 mg/kg ip × 4 at ZT18) were 12.5% and 66%, respectively. The “tumour inhibition as compared to controls” value in data set [2] (hepatocarcinoma-bearing mice, overall statement in discussion) is reported as approximately 60%. In addition, the “treated mice alive at completion” value in data set [3] (Experiment 4, 15 mg/kg ip × 4, ZT6 and ZT18) worked out at 45%. Further, the “loss of body weight before treatment” value in data set [3] (after a cumulative dose of 60 mg/kg) was ~10% (±3.2%).
